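In this assay, cells in 96-well plates receive the compound at five concentrations for 48 hours. Endpoints are linearly interpolated between the surrounding concentrations. GI50 = concentration required for 50% inhibition of growth. TGI is the concentration that stops growth completely.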
What was measured:
Test in all cases: DTP human tumour cell line panel, 48 h
NCI-H522 lung = system: NCI-H522 lung
LOX IMVI melanoma = system: LOX IMVI melanoma
RPMI-8226 leukemia = system: RPMI-8226 leukemia
K-562 leukemia = system: K-562 leukemia
EKVX NSCLC = system: EKVX NSCLC
MCF7 breast = system: MCF7 breast
HS 578T breast = system: HS 578T breast
M14 melanoma = system: M14 melanoma
NCI-H226 lung = system: NCI-H226 lung
MALME-3M melanoma = system: MALME-3M melanoma
A549 NSCLC = system: A549 NSCLC
OVCAR-5 ovarian = system: OVCAR-5 ovarian
T-47D breast = system: T-47D breast
SR leukemia = system: SR leukemia
KM12 colon = system: KM12 colon
SK-OV-3 ovarian = system: SK-OV-3 ovarian
SK-MEL-5 melanoma = system: SK-MEL-5 melanoma
NCI-H460 lung = system: NCI-H460 lung
TK-10 renal = system: TK-10 renal
UACC-62 melanoma = system: UACC-62 melanoma
UACC-257 melanoma = system: UACC-257 melanoma
HT29 colon = system: HT29 colon
DU-145 prostate = system: DU-145 prostate
RXF 393 renal = system: RXF 393 renal
U251 CNS = system: U251 CNS
IGROV1 ovarian = system: IGROV1 ovarian
CAKI-1 renal = system: CAKI-1 renal
SW-620 colon = system: SW-620 colon
SN12C renal = system: SN12C renal
SNB-75 CNS = system: SNB-75 CNS
HL-60(TB) leukemia = system: HL-60(TB) leukemia
BT-549 breast = system: BT-549 breast
OVCAR-4 ovarian = system: OVCAR-4 ovarian
OVCAR-3 ovarian = system: OVCAR-3 ovarian
SK-MEL-28 melanoma = system: SK-MEL-28 melanoma
NCI/ADR-RES ovarian = system: NCI/ADR-RES ovarian
UO-31 renal = system: UO-31 renal
HCT-15 colon = system: HCT-15 colon
NCI-H23 lung = system: NCI-H23 lung
MOLT-4 leukemia = system: MOLT-4 leukemia
MDA-MB-231 breast = system: MDA-MB-231 breast
HOP-92 NSCLC = system: HOP-92 NSCLC
HCT-116 colon = system: HCT-116 colon
SF-295 CNS = system: SF-295 CNS
HCC-2998 colon = system: HCC-2998 colon
MDA-MB-435 = system: MDA-MB-435
HOP-62 NSCLC = system: HOP-62 NSCLC
SNB-19 CNS = system: SNB-19 CNS
A498 renal = system: A498 renal
786-0 renal = system: 786-0 renal
ACHN renal = system: ACHN renal
SF-539 CNS = system: SF-539 CNS
OVCAR-8 ovarian = system: OVCAR-8 ovarian
SK-MEL-2 melanoma = system: SK-MEL-2 melanoma
PC-3 prostate = system: PC-3 prostate
CCRF-CEM leukemia = system: CCRF-CEM leukemia
SF-268 CNS = system: SF-268 CNS

COc1cc(CNC(=O)/C=C/C=C/c2ccc3c(c2)OCO3)ccc1OCc1cn(-c2ccc(Cl)c(Cl)c2)nn1
GI50 (NCI-H522 lung): 1810 nM | TGI (NCI-H522 lung): 5.11 µM | GI50 (LOX IMVI melanoma): 1780 nM | TGI (LOX IMVI melanoma): 3.96 µM | GI50 (RPMI-8226 leukemia): 2300 nM | TGI (RPMI-8226 leukemia): 8.36 µM | GI50 (K-562 leukemia): 509 nM | TGI (K-562 leukemia): 3.78 µM | GI50 (EKVX NSCLC): 2950 nM | TGI (EKVX NSCLC): 13.4 µM | GI50 (MCF7 breast): 889 nM | TGI (MCF7 breast): 3.23 µM | GI50 (HS 578T breast): 2530 nM | TGI (HS 578T breast): 8.56 µM | GI50 (M14 melanoma): 982 nM | TGI (M14 melanoma): 2390 nM | GI50 (NCI-H226 lung): 1740 nM | TGI (NCI-H226 lung): 4.31 µM | GI50 (MALME-3M melanoma): 476 nM | TGI (MALME-3M melanoma): 1920 nM | GI50 (A549 NSCLC): 999 nM | TGI (A549 NSCLC): 4.18 µM | GI50 (OVCAR-5 ovarian): 1770 nM | TGI (OVCAR-5 ovarian): 3.99 µM | GI50 (T-47D breast): 1170 nM | TGI (T-47D breast): 3.49 µM | GI50 (SR leukemia): 2800 nM | TGI (SR leukemia): 19.1 µM | GI50 (KM12 colon): 2410 nM | TGI (KM12 colon): 7.25 µM | GI50 (SK-OV-3 ovarian): 2540 nM | TGI (SK-OV-3 ovarian): 6.57 µM | GI50 (SK-MEL-5 melanoma): 1770 nM | TGI (SK-MEL-5 melanoma): 3.69 µM | GI50 (NCI-H460 lung): 445 nM | TGI (NCI-H460 lung): 1830 nM | GI50 (TK-10 renal): 2310 nM | TGI (TK-10 renal): 7.65 µM | GI50 (UACC-62 melanoma): 1260 nM | TGI (UACC-62 melanoma): 2650 nM | GI50 (UACC-257 melanoma): 1800 nM | TGI (UACC-257 melanoma): 3.98 µM | GI50 (HT29 colon): 2490 nM | TGI (HT29 colon): 8.18 µM | GI50 (DU-145 prostate): 1450 nM | TGI (DU-145 prostate): 3.16 µM | GI50 (RXF 393 renal): 1690 nM | TGI (RXF 393 renal): 3.75 µM | GI50 (U251 CNS): 1650 nM | TGI (U251 CNS): 3.22 µM | GI50 (IGROV1 ovarian): 1520 nM | TGI (IGROV1 ovarian): 3.75 µM | GI50 (CAKI-1 renal): 1620 nM | TGI (CAKI-1 renal): 3.57 µM | GI50 (SW-620 colon): 362 nM | TGI (SW-620 colon): 1550 nM | GI50 (SN12C renal): 1820 nM | TGI (SN12C renal): 4.93 µM | GI50 (SNB-75 CNS): 1940 nM | TGI (SNB-75 CNS): 5.99 µM | GI50 (HL-60(TB) leukemia): 2080 nM | TGI (HL-60(TB) leukemia): 5.73 µM | GI50 (BT-549 breast): 1830 nM | TGI (BT-549 breast): 4.46 µM | GI50 (OVCAR-4 ovarian): 1090 nM | TGI (OVCAR-4 ovarian): 2720 nM | GI50 (OVCAR-3 ovarian): 1420 nM | TGI (OVCAR-3 ovarian): 2810 nM | GI50 (SK-MEL-28 melanoma): 1670 nM | TGI (SK-MEL-28 melanoma): 3.46 µM | GI50 (NCI/ADR-RES ovarian): 1420 nM | TGI (NCI/ADR-RES ovarian): 4.93 µM | GI50 (UO-31 renal): 3.15 µM | TGI (UO-31 renal): 13.7 µM | GI50 (HCT-15 colon): 519 nM | TGI (HCT-15 colon): 2500 nM | GI50 (NCI-H23 lung): 588 nM | TGI (NCI-H23 lung): 2340 nM | GI50 (MOLT-4 leukemia): 738 nM | TGI (MOLT-4 leukemia): 2670 nM | GI50 (MDA-MB-231 breast): 1950 nM | TGI (MDA-MB-231 breast): 5 µM | GI50 (HOP-92 NSCLC): 1480 nM | TGI (HOP-92 NSCLC): 3.39 µM | GI50 (HCT-116 colon): 1220 nM | TGI (HCT-116 colon): 2840 nM | GI50 (SF-295 CNS): 1850 nM | TGI (SF-295 CNS): 4.19 µM | GI50 (HCC-2998 colon): 2100 nM | TGI (HCC-2998 colon): 4.74 µM | GI50 (MDA-MB-435): 2000 nM | TGI (MDA-MB-435): 4.75 µM | GI50 (HOP-62 NSCLC): 1790 nM | TGI (HOP-62 NSCLC): 3.86 µM | GI50 (SNB-19 CNS): 2500 nM | TGI (SNB-19 CNS): 12.4 µM | GI50 (A498 renal): 1570 nM | TGI (A498 renal): 3.22 µM | GI50 (786-0 renal): 2030 nM | TGI (786-0 renal): 4.28 µM | GI50 (ACHN renal): 504 nM | TGI (ACHN renal): 1770 nM | GI50 (SF-539 CNS): 3.26 µM | TGI (SF-539 CNS): 12.3 µM | GI50 (OVCAR-8 ovarian): 2350 nM | TGI (OVCAR-8 ovarian): 8.15 µM | GI50 (SK-MEL-2 melanoma): 1740 nM | TGI (SK-MEL-2 melanoma): 3.86 µM | GI50 (PC-3 prostate): 1480 nM | TGI (PC-3 prostate): 3.47 µM | GI50 (CCRF-CEM leukemia): 1440 nM | TGI (CCRF-CEM leukemia): 12.6 µM | GI50 (SF-268 CNS): 2300 nM | TGI (SF-268 CNS): 7.94 µM

— PubChem BioAssay (NCI)
